According to patent US20110002843A1, “METHOD OF DETECTING MYOCARDIAL DYSFUNCTION IN PATIENTS HAVING A HISTORY OF ASTHMA OR BRONCHOSPASM” (priority 2005, published 2011):

Assay: Pulmonary responses and safety in human subjects with mild, intermittent asthma (single-blind and double-blind parts)
Type: in vivo
Protocol: Methodology: The study consisted of 2 parts, a Single-Blind Part and a Double-Blind Part. The dose escalating, Single-Blind Part enrolled subjects with mild, intermittent asthma and consisted of 3 sequentially enrolled dosing cohorts with 8 subjects per cohort, such that Dosing Cohorts 1, 2 and 3 received binodenoson target doses of 0.5 μg/kg, 1.0 μg/kg and 1.5 μg/kg, respectively. All 8 subjects in a dosing cohort must have completed dosing at the assigned dose and a medical review of each cohort must have been acceptable before enrollment in the next cohort began. The Double-Blind Part was initiated only if the medical review of all safety data from the Single-Blind Part was acceptable. In the Double Blind Part, subjects with mild, intermittent asthma were randomly assigned in a 2:1 ratio to receive either binodenoson 1.5 μg/kg (n=40 planned) or placebo control (n=20 planned).
Both study parts were comprised of Screening, Treatment and Follow-Up Visits. The Screening Visit occurred 7 to 14 days before the Treatment Visit and consisted of a physical examination, medical history and application of inclusion and exclusion criteria. Subjects were instructed to measure peak expiratory flow (PEF) and asthma symptoms during a period of at least 7 days prior to the Treatment Visit. Subjects were to continue to meet all Screening eligibility criteria at the Treatment Visit and forced expiratory volume in 1 second (FEV1) was to remain within 80% of predicted for subjects to be eligible for dosing. All subjects enrolled in the Single-Blind Part and subjects randomized to receive binodenoson in the Double-Blind Part received 3 intravenous (IV) injections during the Treatment Visit: (1) placebo; (2) a low, challenge binodenoson dose to detect potential hypersensitivity reactions; and (3) an assigned binodenoson test dose. Subjects randomized to receive placebo in the Double Blind Part received 3 placebo injections. The Follow-Up Visit occurred 2 to 4 days following the Treatment Visit.
Eligible subjects were males or non-pregnant, nonlactating females ≧18 years of age weighing <350 pounds with a medical history of mild, intermittent asthma (as defined in the “Guidelines for the Diagnosis and Management of Asthma” prepared by the National Institutes of Health [NIH]) within 6 months of Screening.
Subjects were not eligible for the study if they had resting sitting systolic blood pressure (SBP)<100 or >140 mmHg, diastolic blood pressure (DBP)<60 or >90 mmHg, pulse rate >95 beats per minute (bpm), or a lower limit FEV1 at rest of <80% of the predicted value at Screening.
Dose and Mode of Administration: A stock solution of binodenoson (25 μg/mL) was administered as a bolus injection over 30 seconds (0.1 μg/kg=0.004 mL/kg of stock solution, 0.5 μg/kg=0.02 mL/kg of stock solution, 1.0 μg/kg=0.04 mL/kg of stock solution and 1.5 μg/kg=0.06 mL/kg of stock solution).
Duration of Treatment: Each subject received three 30-second bolus IV injections separated by ≧90 minutes in both the Single Blind and Double-Blind Parts of the study.
Criteria for Evaluation: The primary safety endpoint was clinically significant bronchoconstriction, defined as a ≧20% decrease in FEV1 from the predrug baseline following binodenoson administration. Other safety assessments included need for rescue medication, regular measurements of pulmonary function (FEV1 [% predicted], forced vital capacity [FVC] and forced expiratory flow during the middle half of the FVC [FEF25%-75%]), vital signs, pulse oximetry, physical examination findings, electrocardiogram (ECG) results, clinical laboratory results and adverse events.
Statistical Methods: All data collected in the study were summarized by treatment (placebo; 0.1 μg/kg binodenoson challenge; or 0.5, 1.0, or 1.5 μg/kg binodenoson) and study Part (Single-Blind or Double-Blind with univariate summaries). Continuous variables were summarized with descriptive statistics (n, mean, median, standard deviation [SD] and minimum and maximum). […]

[1] = double-blind, Binodenoson Group, second injection 0.1 μg/kg iv bolus, 15 minutes
[2] = double-blind, Binodenoson Group, second injection 0.1 μg/kg iv bolus, 90 minutes
[3] = double-blind, binodenoson 1.5 μg/kg group
[4] = double-blind, third injection 1.5 μg/kg
[5] = double-blind, third injection 1.5 μg/kg iv bolus, 5 min
[6] = double-blind, third injection 1.5 μg/kg iv bolus, 15 min
[7] = double-blind, third injection 1.5 μg/kg iv bolus, 45 min

Nc1nc(N/N=C/C2CCCCC2)nc2c1ncn2[C@@H]1O[C@H](CO)[C@@H](O)[C@H]1O (stereo in doubt) [Binodenoson, 2-{2-[(Cyclohexyl)methylene]hydrazino}adenosine]
changes from baseline in mean FEV1, FEV1 (% predicted), FEF25%-75%, FVC (after any injection, single- or double-blind part): No clinically significant changes from baseline | safety and tolerability (doses up to 1.5 μg/kg): safe and well tolerated | FEF25%-75% Mean % Change from Baseline (SD) [1]: 1.531 (5.261) % | FEF25%-75% Mean (SD) [1]: 2.946 (0.973) | FEV1 (% predicted) Mean % Change from Baseline (SD) [1]: 0.3 (2.4) % | FEV1 (% predicted) Mean (SD) [1]: 88.3 (6.9) % predicted | FEV1 (L) Mean % Change from Baseline (SD) [1]: 0.421 (2.525) % | FEV1 (L) Mean (SD) [1]: 3.170 (0.590) L | FVC Mean % Change from Baseline (SD) [1]: 0.055 (2.683) % | FVC Mean (SD) [1]: 4.051 (0.824) | FEF25%-75% Mean % Change from Baseline (SD) [2]: 1.181 (6.739) % | FEF25%-75% Mean (SD) [2]: 2.965 (1.071) | FEV1 (% predicted) Mean % Change from Baseline (SD) [2]: −0.1 (2.9) % | FEV1 (% predicted) Mean (SD) [2]: 87.9 (7.7) % predicted | FEV1 (L) Mean % Change from Baseline (SD) [2]: −0.042 (3.348) % | FEV1 (L) Mean (SD) [2]: 3.152 (0.574) L | FVC Mean % Change from Baseline (SD) [2]: −0.457 (3.163) % | FVC Mean (SD) [2]: 4.021 (0.778) | abdominal discomfort, treatment emergent AE [3]: 5% | dizziness, treatment emergent AE [3]: 18% | flushing, treatment emergent AE [3]: 15% | headache, treatment emergent AE [3]: 5% | nausea, treatment emergent AE [3]: 8% | sinus tachycardia, treatment emergent AE [3]: 8% | tachycardia, treatment emergent AE [3]: 31% | changes from baseline in mean FEV1, FEV1 (% predicted), FEF25%-75%, FVC (double-blind, binodenoson 1.5 μg/kg group, after first or second injections): no clinically significant changes from baseline | subjects who experienced AEs (double-blind, binodenoson 1.5 μg/kg subjects (placebo 19%)): 69% | changes from baseline in mean FEV1, FEV1 (% predicted), FEF25%-75%, FVC [4]: No clinically significant changes from baseline | treatment differences in pulmonary function versus placebo [4]: no statistically significant treatment differences | FEF25%-75% Mean % Change from Baseline (SD) [5]: −0.877 (6.999) % | FEF25%-75% Mean (SD) [5]: 2.913 (0.981) | FEV1 (% predicted) Mean % Change from Baseline (SD) [5]: 0.1 (3.3) % | FEV1 (% predicted) Mean (SD) [5]: 88.0 (8.7) % predicted | FEV1 Mean % Change from Baseline (SD) [5]: 0.028 (3.849) % | FEV1 Mean (SD) [5]: 3.153 (0.589) | FVC Mean % Change from Baseline (SD) [5]: 0.186 (4.299) % | FVC Mean (SD) [5]: 4.022 (0.746) | FEF25%-75% Mean % Change from Baseline (SD) [6]: −0.477 (6.555) % | FEF25%-75% Mean (SD) [6]: 2.930 (1.012) | FEV1 (% predicted) Mean % Change from Baseline (SD) [6]: −0.3 (2.6) % | FEV1 (% predicted) Mean (SD) [6]: 87.6 (8.5) % predicted | FEV1 Mean % Change from Baseline (SD) [6]: −0.405 (3.079) % | FEV1 Mean (SD) [6]: 3.137 (0.574) | FVC Mean % Change from Baseline (SD) [6]: −0.309 (3.272) % | FVC Mean (SD) [6]: 4.004 (0.755) | FEF25%-75% Mean % Change from Baseline (SD) [7]: 0.388 (7.548) % | FEF25%-75% Mean (SD) [7]: 2.940 (0.959) | FEV1 (% predicted) Mean % Change from Baseline (SD) [7]: 0.1 (3.3) % | FEV1 (% predicted) Mean (SD) [7]: 88.0 (8.3) % predicted | FEV1 Mean % Change from Baseline (SD) [7]: 0.056 (3.888) % | FEV1 Mean (SD) [7]: 3.156 (0.598) | FVC Mean % Change from Baseline (SD) [7]: −0.133 (4.369) % | FVC Mean (SD) [7]: 4.015 (0.780) | FEF25%-75% Mean % Change from Baseline (SD) (double-blind, third injection 1.5 μg/kg iv bolus, 90 min): −0.335 (8.198) %
